Experimental findings from ChEMBL document CHEMBL1201862, “PubChem BioAssay data set” (2004) are described below.

Test [1] has as its system Streptococcus sp. 'group A'. As to the kind of experiment: Streptococcus pyogenes SK(-)GAS viability under kanamycin – luminescence, BacTiterGlo, confirmation, counter-screen for streptokinase expression inhibitor project, dose response (AID 1900). Format: functional, organism-based. On the technique in general: The purpose of a counterscreen is to sort out artefacts and off-target activity.

In test [2] the test system is Streptococcus. Nature of the test: Luminescence Microorganism-Based Dose Response Follow up to Identify Compounds Cytotoxic to Streptococcus. [Related pubchem assays: 1677 (Project Summary), 1915, 1914, 1902 (Retest at Dose), 1900 (Counter Screen), 1662 (Primary HTS)]. The test is classed as functional, organism-based.
Test [3] addresses T1, Streptokinase A (Streptococcus pyogenes serotype M1, UniProt P10520).
T1 sequence (P10520 whole entry): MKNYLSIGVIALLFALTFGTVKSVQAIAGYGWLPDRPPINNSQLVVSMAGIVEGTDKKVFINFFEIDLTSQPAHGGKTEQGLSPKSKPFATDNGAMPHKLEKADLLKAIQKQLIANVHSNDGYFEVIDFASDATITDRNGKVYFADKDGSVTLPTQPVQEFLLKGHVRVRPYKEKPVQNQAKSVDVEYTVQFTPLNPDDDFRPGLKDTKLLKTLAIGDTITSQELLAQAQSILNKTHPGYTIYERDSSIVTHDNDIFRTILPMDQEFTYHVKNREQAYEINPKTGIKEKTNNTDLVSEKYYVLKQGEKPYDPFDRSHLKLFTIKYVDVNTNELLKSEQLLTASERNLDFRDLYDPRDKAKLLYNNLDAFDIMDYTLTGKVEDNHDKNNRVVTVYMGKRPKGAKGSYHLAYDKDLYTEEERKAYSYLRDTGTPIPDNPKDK
Nature of the test: viability-normalized secreted streptokinase activity reduction – plasminogen activation absorbance, OD405, dose response (AID 1914).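 Note: secreted streptokinase activity via plasminogen activation per viability signal from cell pellet.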 The test is classed as functional, Streptococcus pyogenes M1 GAS.

Test [4] deals with Streptococcus. As to the kind of experiment: GAS UMAA2166 growth inhibition – luminescence, BacTiterGlo, counter-screen for streptokinase expression inhibitor project, dose response (AID 1915).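 Note: potency for reduction of bacterial viability or growth.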 The test is classed as functional, organism-based.
Test [5] in a line: NIH-3T3 fibroblast cytotoxicity, dose response, cytotoxicity control, cell-based, fluorescence, Alamar Blue, secondary assay (AID 2327).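 Note: NIH-3T3 mouse fibroblasts cultured with fluconazole at 8 µg/mL.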 Format: functional. For orientation: Resazurin is reduced to fluorescent resorufin, in cell work by metabolically active cells.
Test [6] can be described thus: luciferase reporter signal suppression in cells – H4 neuroglioma cells, luminescence, dose response (AID 1990). Format: functional, cell-based.
Test [7] deals with HEK293. Nature of the test: inhibition of NOD1-driven NF-kB reporter – cell-based, luminescence, uHTS, primary screen (AID 1578). The test is classed as functional. To be noted: Homo sapiens.
For test [8], the system named is HEK293. As to the kind of experiment: cells. The test is classed as functional, cell-based. To be noted: Homo sapiens.
A short description of test [9]: Luminescence Cell-Based Dose Response HTS to Identify Inhibitors of 5'UTR Stem-Loop Driven Prion Protein mRNA Translation in H4 Neuroglioblastoma Cells. [Related pubchem assays: 1827 (Project Summary), 1813 (Primary HTS)]. The test is classed as functional.
A short description of test [10]: alpha-synuclein stem-loop luciferase translation blockers – H4 neuroglioma cells, luminescence, confirmation (AID 1988). The test is classed as functional, cell-based.
The nature of test [11]: fluconazole-exposed Candida albicans growth modulators – fluorescence, retest, confirmation (AID 2467). Format: functional, cell-based.
Test [12] relates to HEK293. As to the kind of experiment: cells. The test is classed as functional, cell-based. The following applies: Homo sapiens. This is another data set of the same source.
The nature of test [13]: Luminescence-based counterscreen assay for KLF5 inhibitors: dose response cell-based high throughput screening assay to identify cytotoxic compounds using the IEC-6 intestinal epithelial cell line. [Related pubchem assays: 1700 (Primary screen.), 1834 (Confirmation screen.), 1858 (Summary AID.), 1905 (Counterscreen.)]. The test is classed as functional.
For test [14], the target named is T2, Nucleotide-binding oligomerization domain-containing protein 2 (Homo sapiens, UniProt Q9HC29). Nature of the test: inhibition of NOD2-driven NF-kB reporter – cell-based, luminescence, uHTS, HEK293 (AID 1566). Format: functional.
T2 sequence (Q9HC29 whole entry, the tested form may be a part): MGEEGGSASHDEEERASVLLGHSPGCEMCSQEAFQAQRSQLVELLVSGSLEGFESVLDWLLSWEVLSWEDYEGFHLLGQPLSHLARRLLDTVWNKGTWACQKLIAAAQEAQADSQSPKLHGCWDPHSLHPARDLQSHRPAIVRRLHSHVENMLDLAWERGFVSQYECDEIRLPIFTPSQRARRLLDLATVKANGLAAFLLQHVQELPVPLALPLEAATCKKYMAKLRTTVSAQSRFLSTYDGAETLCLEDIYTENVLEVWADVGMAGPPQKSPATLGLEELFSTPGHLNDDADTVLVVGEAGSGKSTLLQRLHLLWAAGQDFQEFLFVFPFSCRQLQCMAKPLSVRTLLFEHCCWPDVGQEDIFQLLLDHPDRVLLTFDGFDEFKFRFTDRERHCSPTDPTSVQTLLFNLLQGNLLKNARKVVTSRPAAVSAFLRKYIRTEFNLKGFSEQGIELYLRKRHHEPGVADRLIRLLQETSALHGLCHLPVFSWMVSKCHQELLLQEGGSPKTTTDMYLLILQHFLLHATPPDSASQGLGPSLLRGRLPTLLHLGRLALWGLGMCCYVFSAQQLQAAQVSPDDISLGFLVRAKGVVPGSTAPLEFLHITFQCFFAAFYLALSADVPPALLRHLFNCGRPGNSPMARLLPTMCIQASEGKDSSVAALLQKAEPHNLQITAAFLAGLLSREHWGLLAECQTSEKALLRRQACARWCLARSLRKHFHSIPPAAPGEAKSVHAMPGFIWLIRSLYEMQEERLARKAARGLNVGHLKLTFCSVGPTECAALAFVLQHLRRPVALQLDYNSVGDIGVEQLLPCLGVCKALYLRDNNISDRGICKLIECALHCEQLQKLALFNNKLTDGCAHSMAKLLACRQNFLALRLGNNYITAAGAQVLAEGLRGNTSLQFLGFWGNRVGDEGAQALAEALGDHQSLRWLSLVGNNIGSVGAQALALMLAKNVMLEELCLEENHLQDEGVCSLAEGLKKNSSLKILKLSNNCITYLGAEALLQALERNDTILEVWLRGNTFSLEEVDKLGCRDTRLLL
The subject of test [15] is HEK293. As to the kind of experiment: NOD2 signaling inhibitors in MDP-stimulated cells, cell-based, uHTS, luminescence (AID 2001). The test is classed as functional. To be noted: Homo sapiens.
Test [16] in a line: Trypanosoma cruzi growth suppression in host cells – NIH3T3 host cells, beta-gal luminescence, confirmation (AID 2044).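 Note: intracellular parasites grown in NIH/3T3 mouse fibroblasts as host cells; luminescent beta-galactosidase reporter signal from transgenic T. cruzi replicating inside host cells; inhibitors lower the luminescence signal.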 Format: functional, cell-based.
Test [17] concerns HEK293. Nature of the test: cells. The test is classed as functional, cell-based. The following applies: Homo sapiens. This is another data set of the same source.
Test [18] in a line: NIH3T3 cell viability loss – ATP luminescence, mouse fibroblasts, counter-screen, dose response (AID 2010).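 Note: cells exposed to compound for about 90 hours before reading.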 The test is classed as functional, cell-based.
Test [19] concerns the target T3, Interleukin-8 (Homo sapiens, UniProt P10145).
T3 sequence (P10145 whole entry): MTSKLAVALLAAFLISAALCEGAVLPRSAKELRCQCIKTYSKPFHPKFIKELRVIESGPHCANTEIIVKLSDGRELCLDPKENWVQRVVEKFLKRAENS
Nature of the test: SAR analysis of Tumor necrosis factor alpha (TNF-alpha) induced IL-8 secretion in MCF-7/NOD1 cells - Set 2. [Related pubchem assays (depositor defined):AID1575, AID2250, AID2260]. The test is classed as functional, cell-based.

Test [20] has as its target T3, Interleukin-8. Nature of the test: SAR analysis of GM-Tri-DAP induced IL-8 secretion in MCF-7/NOD1 cells - Set 2. [Related pubchem assays (depositor defined):AID1575, AID1578, AID2333]. The test is classed as functional, cell-based.
For test [21], the target named is Tumor necrosis factor (Homo sapiens, UniProt P01375). Nature of the test: analog potency on TNFa NF-kB signaling – cell-based, revised, SAR follow-up (AID 2337). The test is classed as functional.
Tumor necrosis factor, sequence (P01375 whole entry, the tested form may be a part): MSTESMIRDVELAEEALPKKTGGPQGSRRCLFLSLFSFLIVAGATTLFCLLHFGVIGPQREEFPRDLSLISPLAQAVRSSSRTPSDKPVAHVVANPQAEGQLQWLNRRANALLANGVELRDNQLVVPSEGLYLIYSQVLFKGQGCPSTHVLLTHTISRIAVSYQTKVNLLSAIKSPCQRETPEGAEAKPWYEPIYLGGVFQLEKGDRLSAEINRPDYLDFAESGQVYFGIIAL
For test [22], the target named is T4, Nucleotide-binding oligomerization domain-containing protein 1 (Homo sapiens, UniProt Q9Y239).
T4 sequence (Q9Y239 whole entry): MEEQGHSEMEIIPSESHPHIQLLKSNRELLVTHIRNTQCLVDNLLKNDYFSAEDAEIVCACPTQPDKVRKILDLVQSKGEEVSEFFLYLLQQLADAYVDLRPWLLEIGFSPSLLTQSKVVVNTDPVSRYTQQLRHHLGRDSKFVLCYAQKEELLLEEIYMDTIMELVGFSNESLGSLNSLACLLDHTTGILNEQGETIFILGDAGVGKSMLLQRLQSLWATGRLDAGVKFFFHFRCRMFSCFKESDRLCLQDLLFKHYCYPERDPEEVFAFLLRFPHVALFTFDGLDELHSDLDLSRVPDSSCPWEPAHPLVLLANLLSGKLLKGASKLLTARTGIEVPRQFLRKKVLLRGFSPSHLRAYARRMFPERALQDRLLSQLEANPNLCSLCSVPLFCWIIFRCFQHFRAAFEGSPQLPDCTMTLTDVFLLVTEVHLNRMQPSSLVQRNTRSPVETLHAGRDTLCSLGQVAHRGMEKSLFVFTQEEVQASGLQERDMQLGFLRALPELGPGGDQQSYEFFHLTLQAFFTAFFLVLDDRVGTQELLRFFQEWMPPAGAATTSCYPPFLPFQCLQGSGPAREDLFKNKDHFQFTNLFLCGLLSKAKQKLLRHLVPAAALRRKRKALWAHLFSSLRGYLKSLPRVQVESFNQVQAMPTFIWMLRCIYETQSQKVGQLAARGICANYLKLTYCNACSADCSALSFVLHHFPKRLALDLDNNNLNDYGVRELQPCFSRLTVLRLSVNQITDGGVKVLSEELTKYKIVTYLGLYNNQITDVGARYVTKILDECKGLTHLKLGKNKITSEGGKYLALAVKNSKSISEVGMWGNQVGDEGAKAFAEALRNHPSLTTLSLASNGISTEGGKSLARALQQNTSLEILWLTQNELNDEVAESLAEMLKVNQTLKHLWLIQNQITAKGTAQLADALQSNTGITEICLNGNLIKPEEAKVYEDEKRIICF
As to the kind of experiment: blockers of NOD1 pathway activity – revised, SAR follow-up (AID 2333). Format: functional.

The target of test [23] is T2, Nucleotide-binding oligomerization domain-containing protein 2. As to the kind of experiment: PubChem AID 2334. Format: functional.
Test [24] relates to Vero. As to the kind of experiment: cells. The test is classed as functional, cell-based. The following applies: Chlorocebus sabaeus.
The subject of test [25] is INS1. As to the kind of experiment: INS-1E survival protection against cytokine death – cell-based, luminescence, retest, dose response (AID 449756).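 Note: cell death triggered by IL-1 beta plus TNF-alpha plus IFN-gamma mixture; protective hits raise ATP signal compared with cytokine alone wells.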 Format: functional. The following applies: Rattus norvegicus.
The subject of test [26] is Vero. As to the kind of experiment: cells. Format: functional. The following applies: Chlorocebus sabaeus.
The target of test [27] is Paired box protein Pax-8 (Homo sapiens, UniProt Q06710). As to the kind of experiment: PAX8 transcriptional activity inhibition in RMG-I – RMG-I cells, luciferase, cherry-pick, dose response (AID 687027).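 Note: luciferase reporter driven by Pax8 target thyroperoxidase promoter measured by SteadyGlo luminescence.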 Format: functional, cell-based.
Paired box protein Pax-8, sequence (Q06710 whole entry): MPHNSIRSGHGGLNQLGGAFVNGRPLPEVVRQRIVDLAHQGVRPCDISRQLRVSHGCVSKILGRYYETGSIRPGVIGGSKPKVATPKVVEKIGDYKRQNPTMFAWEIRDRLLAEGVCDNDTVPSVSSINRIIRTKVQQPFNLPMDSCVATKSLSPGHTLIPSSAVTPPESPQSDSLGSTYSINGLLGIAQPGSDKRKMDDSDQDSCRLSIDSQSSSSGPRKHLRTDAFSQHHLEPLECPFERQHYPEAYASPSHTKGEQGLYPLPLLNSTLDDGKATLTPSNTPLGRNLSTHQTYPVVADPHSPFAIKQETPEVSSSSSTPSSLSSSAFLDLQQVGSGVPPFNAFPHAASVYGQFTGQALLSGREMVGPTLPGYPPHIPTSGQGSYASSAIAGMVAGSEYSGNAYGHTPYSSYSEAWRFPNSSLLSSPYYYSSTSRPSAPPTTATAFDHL
The subject of test [28] is HEK293. Nature of the test: cells. The following applies: Homo sapiens.
Test [29] has as its target Serine/threonine-protein phosphatase PP1-alpha catalytic subunit (Homo sapiens, UniProt P62136). As to the kind of experiment: inhibition of protein phosphatase 1 activity – biochemical, fluorescence, dose response (AID 2403).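 Note: phosphatase turnover of OMFP into fluorescent 3-O-methylfluorescein.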
Test [30] has as its target Serine/threonine-protein phosphatase (Homo sapiens, UniProt Q9BPW0). Nature of the test: Counterscreen for inhibitors of PP1: fluorescence-based biochemical high throughput dose response assay to identify inhibitors of Protein Phosphatase 5 (PP5). [Related pubchem assays: 2034 (Summary (PP5 inhibitors)), 1987 (PP5 inhibitors in singlate), 2235 (PP1 inhibitors in singlate)].

Test [31] concerns the target Nonstructural protein 1 (Influenza A virus, UniProt Q194T2). Format: functional, Influenza A virus (A/California/07/2009(H1N1)).

Activity calls are given as the source filed them.

Serine/threonine-protein phosphatase PP1-alpha catalytic subunit, sequence (P62136 whole entry): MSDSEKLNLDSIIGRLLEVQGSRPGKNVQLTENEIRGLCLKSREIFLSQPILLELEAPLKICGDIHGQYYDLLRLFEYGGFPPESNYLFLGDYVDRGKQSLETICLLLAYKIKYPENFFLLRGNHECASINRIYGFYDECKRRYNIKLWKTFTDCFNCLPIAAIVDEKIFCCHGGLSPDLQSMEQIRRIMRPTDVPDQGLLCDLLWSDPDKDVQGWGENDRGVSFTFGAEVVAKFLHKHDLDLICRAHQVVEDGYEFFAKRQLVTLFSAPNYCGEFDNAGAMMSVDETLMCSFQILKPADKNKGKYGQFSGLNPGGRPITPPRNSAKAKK
Serine/threonine-protein phosphatase, sequence (Q9BPW0 whole entry): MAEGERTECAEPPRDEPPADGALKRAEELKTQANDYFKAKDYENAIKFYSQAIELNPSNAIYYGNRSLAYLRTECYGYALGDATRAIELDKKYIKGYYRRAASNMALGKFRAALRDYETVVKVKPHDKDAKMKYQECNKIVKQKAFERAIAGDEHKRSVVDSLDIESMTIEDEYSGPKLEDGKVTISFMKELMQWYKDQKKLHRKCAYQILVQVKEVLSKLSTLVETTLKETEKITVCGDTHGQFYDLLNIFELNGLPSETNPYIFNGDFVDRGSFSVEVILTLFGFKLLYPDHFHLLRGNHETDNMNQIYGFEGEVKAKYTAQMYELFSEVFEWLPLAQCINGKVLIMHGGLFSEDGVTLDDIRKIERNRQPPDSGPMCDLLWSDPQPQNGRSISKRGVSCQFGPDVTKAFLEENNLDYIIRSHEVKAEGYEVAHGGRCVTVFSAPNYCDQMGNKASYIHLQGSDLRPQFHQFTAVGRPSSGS
Nonstructural protein 1, sequence (Q194T2 whole entry): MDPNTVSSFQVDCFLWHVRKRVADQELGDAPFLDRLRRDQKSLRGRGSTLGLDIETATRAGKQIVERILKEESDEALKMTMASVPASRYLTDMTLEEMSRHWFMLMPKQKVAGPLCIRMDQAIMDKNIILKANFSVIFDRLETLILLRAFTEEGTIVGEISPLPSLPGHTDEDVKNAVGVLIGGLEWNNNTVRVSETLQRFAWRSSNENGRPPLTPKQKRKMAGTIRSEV

What is called EC50 is the concentration giving half of the maximal effect. For `Cc1ccc(C(=O)n2c3ccccc3c3ccccc32)cc1`, the EC50 is 21.6 µM (active) in test [1], > 500 µM (not active) in test [2], 6.45 µM (active) in [3] and > 150 µM (not active) in [4].
As usually defined, the IC50 is the point on the concentration scale where inhibition reaches its midpoint. In general, AC50 refers to the concentration giving half of the maximal activity seen. As a reminder, the CC50 is the concentration giving 50% cytotoxicity. On to `Oc1ccc(N=Nc2ccccc2C(F)(F)F)c2cccnc12`, for which the EC50 in [5] was > 160 µM (inactive); in test [6] it was 1.9 µM (active); in [7], 3.71 µM (active); in test [9] it was 1.08 µM (active); in [10] it was 0.308 µM (active); in [11], 1.57 µM (active). For the same compound, the EC50 in test [14] is > 20 µM (inactive); in [16] it was 0.633 µM (active); in test [18] it was 6.95 µM (active). The IC50 was > 20 µM (inactive) in [8]; > 20 µM (inactive) in [12]; 6.27 µM (active) in test [13]; 4.21 µM (inactive) in [15]; > 20 µM (inactive) in test [17]; > 25 µM (inactive) in test [19]. Further, the concentration for half-maximal inhibition (IC50) was 19.8 µM (active) in test [20]; 7.03 µM (active) in test [21]; > 20 µM (inactive) in [22]; > 20 µM (inactive) in [23]; > 25 µM (active) in [24]; > 20 µM (inactive) in test [28]. Further, the AC50 in [25] was 1.17 µM (active); in test [27], 4.15 µM (active). The CC50 in [26] was 4.62 µM (active).
Take `Cc1ccn2c(Nc3ccc4c(c3)OCO4)c(-c3ccccn3)nc2c1`: the concentration for half-maximal inhibition (IC50) in [29] was 6.76 µM (active); in test [30], 37.9 µM (not active); in test [31], 11.5 µM (active).
